Laboratory results reported in patent publication US20220354754A1, “FOAM COMPOSITIONS” (The Procter & Gamble Company, priority 2021, published 2022).

Assay: Water solubility of blowing agents at 20° C.
Details: in water

Structure (SMILES)	Water solubility at 20° C. (weight percent)
CC(C)C [Isobutane]	<0.01% weight percent
[N-]=[N+]=O [Nitrous oxide]	0.12 weight percent
[He] [Helium]	<0.01 weight percent
CCCC [Butane]	<0.01% weight percent

Other lines, results leading:

Water solubility at 20° C. (weight percent)	Structure (SMILES)
7% weight percent	COC [Dimethyl ether]
0.8% weight percent	O=C=O [Carbon dioxide]
